This assay addresses T1, ERα protein (HiBiT-tagged) in ESR1_HiBiT KI MCF7 cells (Homo sapiens, UniProt P03372).
T1 sequence (P03372 1-595): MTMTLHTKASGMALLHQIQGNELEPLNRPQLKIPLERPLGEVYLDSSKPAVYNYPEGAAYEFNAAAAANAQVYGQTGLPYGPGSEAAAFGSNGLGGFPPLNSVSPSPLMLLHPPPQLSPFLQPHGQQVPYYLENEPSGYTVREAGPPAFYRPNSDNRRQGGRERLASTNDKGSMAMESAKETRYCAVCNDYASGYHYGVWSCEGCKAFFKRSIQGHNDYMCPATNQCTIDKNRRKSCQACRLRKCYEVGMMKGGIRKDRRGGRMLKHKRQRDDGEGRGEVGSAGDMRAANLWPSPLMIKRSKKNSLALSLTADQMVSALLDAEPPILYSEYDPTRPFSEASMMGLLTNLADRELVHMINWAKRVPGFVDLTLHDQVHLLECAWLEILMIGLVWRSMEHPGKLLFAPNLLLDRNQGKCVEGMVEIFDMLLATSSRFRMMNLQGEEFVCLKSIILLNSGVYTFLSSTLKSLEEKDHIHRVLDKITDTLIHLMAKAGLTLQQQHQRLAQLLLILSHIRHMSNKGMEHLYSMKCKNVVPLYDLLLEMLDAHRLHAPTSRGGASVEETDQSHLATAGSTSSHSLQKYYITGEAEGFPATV
In words: Nano Glo HiBiT Lytic Degradation Assay. It is filed as cell-based. The following applies: 6 hours with compound, 14-point dose response 1:3, bell-shape curve fit, half-maximal effect of first Hill model, read-out: MCF7 ESR1 HiBiT - (DC50). The procedure, abridged: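 ESR1_HiBiT knock-in MCF7 cells were seeded 24 h before treatment, then exposed to compounds for 6 h at 37° C (14-point 1:3 curves, 10 mM top stock, 0.1% DMSO final, duplicates). HiBiT-ERα was read by lytic LgBiT luminescence, background-subtracted and normalized to DMSO. DC50 was taken from the half-maximal point of the first Hill component of a bell-shaped fit.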
Background: With HiBiT, luminescence reflects the tagged protein that the partner subunit can reach.

Turning to `O=C1CC[C@H](N2Cc3cc(N4CCN(CC5CCN(c6ccc([C@H]7c8ccc(O)cc8CO[C@H]7C7CCCCC7)cc6)CC5)CC4)ccc3C2=O)C(=O)N1` [Compound I-250, (S)-3-(5-(4-((1-(4-((3S,4S)-3-cyclohexyl-7-hydroxyisochroman-4-yl)phenyl)piperidin-4-yl)methyl)piperazin-1-yl)-1-oxoisoindolin-2-yl)piperidine-2,6-dione], the DC50 (as a rule, the concentration at which degradation of the target reaches its halfway point) was found to be 64 nM.
Consider `C[C@H]1O[C@@H](C2CCCCC2)[C@@H](c2ccc(N3CCC(CN4CCN(c5ccc6c(c5)CN([C@H]5CCC(=O)NC5=O)C6=O)CC4)CC3)cc2)c2ccc(O)cc21` [Compound I-251, (S)-3-(5-(4-((1-(4-((1R,3S,4S)-3-cyclohexyl-7-hydroxy-1-methylisochroman-4-yl)phenyl)piperidin-4-yl)methyl)piperazin-1-yl)-1-oxoisoindolin-2-yl)piperidine-2,6-dione], for which the DC50 is 44 nM.
For `C[C@]1(C2CCCCC2)OCc2cc(O)ccc2[C@@H]1c1ccc(N2CCC(CN3CCN(c4ccc5c(c4)CN([C@H]4CCC(=O)NC4=O)C5=O)CC3)CC2)cc1` [Compound I-257, (S)-3-(5-(4-((1-(4-((3R,4S)-3-cyclohexyl-7-hydroxy-3-methylisochroman-4-yl)phenyl)piperidin-4-yl)methyl)piperazin-1-yl)-1-oxoisoindolin-2-yl)piperidine-2,6-dione] the value was 3300 nM; for `C[C@@]1(C2CCCCC2)OCc2cc(O)ccc2[C@H]1c1ccc(N2CCC(CN3CCN(c4ccc5c(c4)CN([C@H]4CCC(=O)NC4=O)C5=O)CC3)CC2)cc1` [Compound I-258, (S)-3-(5-(4-((1-(4-((3S,4R)-3-cyclohexyl-7-hydroxy-3-methylisochroman-4-yl)phenyl)piperidin-4-yl)methyl)piperazin-1-yl)-1-oxoisoindolin-2-yl)piperidine-2,6-dione], 1 nM; for `O=C1CC[C@H](N2Cc3cc(N4CCN(CC5CCN(c6ccc([C@H]7c8ccc(O)cc8CC[C@]78CCc7ccccc78)cc6)CC5)CC4)ccc3C2=O)C(=O)N1` [Compound I-259, (S)-3-(5-(4-((1-(4-((1R,1′R)-6′-hydroxy-2,3,3′,4′-tetrahydro-1′H-spiro[indene-1,2′-naphthalen]-1′-yl)phenyl)piperidin-4-yl)methyl)piperazin-1-yl)-1-oxoisoindolin-2-yl)piperidine-2,6-dione], 98 nM.
Turning to `O=C1CC[C@H](N2Cc3cc(N4CCN(CC5CCN(c6ccc([C@@H]7c8ccc(O)cc8CC[C@@]78CCc7ccccc78)cc6)CC5)CC4)ccc3C2=O)C(=O)N1` [Compound I-260], the DC50 is 0.75 nM.
On to `O=C1CC[C@H](N2Cc3cc(N4CCN(CC5CCN(c6ccc([C@@H]7c8ccc(O)cc8CC[C@]78CCc7ccccc78)cc6)CC5)CC4)ccc3C2=O)C(=O)N1` [Compound I-262, (S)-3-(5-(4-((1-(4-((1R,1′S)-6′-hydroxy-2,3,3′,4′-tetrahydro-1′H-spiro[indene-1,2′-naphthalen]-1′-yl)phenyl)piperidin-4-yl)methyl)piperazin-1-yl)-1-oxoisoindolin-2-yl)piperidine-2,6-dione], for which the DC50 worked out at 2 nM.
`O=C1CC[C@H](N2Cc3cc(N4CCN(CC5CCN(c6ccc([C@@H]7c8ccc(O)cc8CC[C@@]78CCCc7ccccc78)cc6)CC5)CC4)ccc3C2=O)C(=O)N1` [Compound I-264, (S)-3-(5-(4-((1-(4-((1S,1′S)-6′-hydroxy-3,3′,4,4′-tetrahydro-1′H,2H-1,2′-spirobi[naphthalen]′-yl)phenyl)piperidin-4-yl)methyl)piperazin-1-yl)-1-oxoisoindolin-2-yl)piperidine-2,6-dione]: the DC50 was 0.43 nM.
On to `O=C1CC[C@H](N2Cc3cc(N4CCN(CC5CCN(c6ccc([C@H]7c8ccc(O)cc8CO[C@]78CCc7ccccc78)cc6)CC5)CC4)ccc3C2=O)C(=O)N1` [Compound I-267, (S)-3-(5-(4-((1-(4-((1R,4′S)-7′-hydroxy-2,3-dihydrospiro[indene-1,3′-isochroman]-4′-yl)phenyl)piperidin-4-yl)methyl)piperazin-1-yl)-1-oxoisoindolin-2-yl)piperidine-2,6-dione], for which the DC50 was 4 nM.

The record behind these values is US20250388565A1, “ESTROGEN RECEPTOR ALPHA DEGRADERS AND METHODS OF USE THEREOF” (Relay Therapeutics, Inc., priority 2022, published 2025).
